Target: T1, panel of 442 kinases (Homo sapiens, UniProt Q9BZL6)
T1 construct: purchased KINOMEscan
T1 sequence (Q9BZL6 1-878): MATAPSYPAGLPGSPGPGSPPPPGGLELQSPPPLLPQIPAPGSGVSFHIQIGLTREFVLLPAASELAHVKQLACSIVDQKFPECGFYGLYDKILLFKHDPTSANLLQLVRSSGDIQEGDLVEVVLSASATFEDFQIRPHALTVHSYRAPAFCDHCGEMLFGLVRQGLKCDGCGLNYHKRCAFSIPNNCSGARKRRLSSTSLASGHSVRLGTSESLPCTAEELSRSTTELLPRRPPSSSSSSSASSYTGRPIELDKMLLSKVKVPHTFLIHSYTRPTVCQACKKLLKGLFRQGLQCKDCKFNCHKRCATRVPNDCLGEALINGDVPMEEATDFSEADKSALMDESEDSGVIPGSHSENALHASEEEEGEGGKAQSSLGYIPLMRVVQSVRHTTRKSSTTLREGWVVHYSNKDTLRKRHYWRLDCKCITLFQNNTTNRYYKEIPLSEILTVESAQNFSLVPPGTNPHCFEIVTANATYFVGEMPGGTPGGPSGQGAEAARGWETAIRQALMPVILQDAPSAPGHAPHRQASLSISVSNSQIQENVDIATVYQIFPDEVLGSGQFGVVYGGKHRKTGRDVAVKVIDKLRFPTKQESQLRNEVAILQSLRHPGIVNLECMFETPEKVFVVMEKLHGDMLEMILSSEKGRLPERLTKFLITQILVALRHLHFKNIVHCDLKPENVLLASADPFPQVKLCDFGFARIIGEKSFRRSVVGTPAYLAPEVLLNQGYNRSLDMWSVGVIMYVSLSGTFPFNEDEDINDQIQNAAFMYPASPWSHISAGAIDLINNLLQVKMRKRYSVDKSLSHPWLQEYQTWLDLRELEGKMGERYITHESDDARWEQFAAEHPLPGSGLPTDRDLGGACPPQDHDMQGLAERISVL
Assay type: binding
Conditions: Compound Concentration 10 µM
Text: We assessed the selectivity of members of this scaffold using the KINOMEscan methodology across a near comprehensive panel of 442 kinases [[18,27]].

Row | Structure (SMILES) | KINOMEscan: PRKD2
1 | COc1cc(C(=O)N2CCC(N3CCN(C)CC3)CC2)ccc1Nc1ncc2c(n1)N(C)c1ccccc1C(=O)N2C [15 (LRRK2-IN-1)] | 59
2 | COc1cc(C(=O)N2CCC(N3CCN(C)CC3)CC2)ccc1Nc1ncc2c(n1)N1CCc3cccc(c31)C(=O)N2C [Compound 24] | 30
3 | COc1cc(C(=O)N2CCC(N3CCN(C)CC3)CC2)ccc1Nc1ncc2c(n1)N(C1CCCC1)c1ccccc1C(=O)N2C [Compound 25, 11-cyclopentyl-2-((2-methoxy-4-(4-(4-methylpiperazin-1-yl)piperidine-1-carbonyl)phenyl)amino)-5-methyl-5H-benzo[e]pyrimido[5,4-b][1,4]diazepin-6(11H)-one] | 87
4 | CCOc1cc(C(=O)N2CCC(N3CCN(C)CC3)CC2)ccc1Nc1ncc2c(n1)N(C1CCCC1)c1ccccc1C(=O)N2C [Compound 26] | 100

Reference: publication PMC3914206
